In publication PMC4917206, “Chemical Modification of Influenza CD8+ T-Cell Epitopes Enhances Their Immunogenicity Regardless of Immunodominance” (PLoS ONE, 2016):

tested on: splenocytes of WT-vaccinated HLA-A2 tg mice; type: cell-based, mouse; details: not given

Substance | Mouse splenocytes (ex vivo assay), Average
[CSET][2-AOC]YSDFHFI [F118] | 81
[THR-BZL][2-AOC]YSDFHFI [F141] | 67

biological target: T1, HLA-A*0201 (Homo sapiens, UniProt P04439, D140Y/D185E/D98H/E176V/E277Q/G131W/G231S/I119V/I121R/I166T/I218V/L300P/L318F/N151K/N90K/P208A/P217A/Q86G/Q94H/R138H/R169H/T345S); type: binding; details: not given
T1 construct: Soluble MHC was dissolved in PBS containing 0.5 mg/ml bovine γ-globulin; made in house

Substance | FP binding score, percentage inhibition of tracer peptide binding, 4h [%] | FP binding score, percentage inhibition of tracer peptide binding, 24h [%]
[CSET][2-AOC]YSDFHFI [F118] | 95 | 93
[THR-BZL][2-AOC]YSDFHFI [F141] | 94 | 93

biological target: T2, HLA-A*0301 (Homo sapiens, UniProt P04439); type: binding; details: not given
T2 construct: Soluble MHC was dissolved in PBS containing 0.5 mg/ml bovine γ-globulin; made in house

Substance | FP binding score, percentage inhibition of tracer peptide binding, 4h [%] | FP binding score, percentage inhibition of tracer peptide binding, 24h [%]
RMVLSAF[PRG]ER [R39] | 62 | 62
I[AHA][2-AOC]GSVAHK [I59] | 71 | 91
S[NVA]SFGG[BPG]TK [S73] | 73 | 91
RMVLSAF[4-FPHE]ER [R40] | 63 | 57
S[NVA][NLE]FGGFTK [S94] | 80 | 93
S[NVA]SFGG[NLE]TK [S68] | 79 | 93
S[NVA]SFGGFHK [S56] | 78 | 91
RMVLSAF[AHA]ER [R81] | 71 | 76
I[AHA][4-FPHE]GSVAHK [I87] | 73 | 91
RMVLSAF[NLE]ER [R36] | 66 | 73
RMVLSAF[ORN]ER [R41] | 65 | 63
I[AHA]RGSV[CpALA]HK [I77] | 71 | 89
[CSME][AHA]RGSVAHK [I61] | 71 | 90
I[AHA][CHA]GSVAHK [I89] | 75 | 91
R[NVA]VLSAF[2-AOC]ER [R71] | 71 | 82
ILRGSVAHK [I WT, reference compound] | 66 | 87
R[AHA]VLSAF[SOME]ER [R66] | 63 | 63
I[AHA][NLE]GSVAHK [I58] | 68 | 89
RM[4-FPHE]LSAFDER [R55] | 70 | 65
S[NVA]SFGG[2-FUR]TK [S76] | 75 | 91
SFSFGGFTK [S WT, reference compound] | 67 | 58

Substance | FP binding score, percentage inhibition of tracer peptide binding, 4h [%] | FP binding score, percentage inhibition of tracer peptide binding, 24h [%]
S[AHA]RFGGFTK [S54] | 80 | 92
S[NVA][CSME]FGGFTK [S93] | 80 | 93
S[NVA]SFGG[CpALA]TK [S74] | 78 | 94
S[NVA]SFGG[4-FPHE]TK [S72] | 79 | 93
I[AHA]RGSV[CSET]HK [I73] | 74 | 90
I[AHA]RGSV[2-FUR]HK [I79] | 77 | 90
S[NVA]SFGG[NVA]TK [S69] | 72 | 91
RM[2-AOC]LSAFDER [R50] | 70 | 66
I[AHA]RGSV[NLE]HK [I74] | 77 | 92
IL[4-FPHE]GSVAHK [I94] | 70 | 89
ILRGSV[2-AOC]HK [I65] | 87 | 94
[AHA][NLE]RGSVAHK [I53] | 73 | 91
I[OrnN2]RGSVAHK [I49] | 71 | 90
S[NVA]SFGG[PRG]TK [S71] | 70 | 90
S[NVA]RFGGFTK [S53] | 80 | 93
S[NVA][2-AOC]FGGFTK [S50] | 83 | 94
I[AHA][SOME]GSVAHK [I85] | 69 | 88
S[NVA][AHA]FGGFTK [S52] | 80 | 93
I[AHA][PRG]GSVAHK [I84] | 71 | 89
S[NVA][4-FPHE]FGGFTK [S95] | 80 | 93
I[AHA][CSME]GSVAHK [I86] | 71 | 89

Substance | FP binding score, percentage inhibition of tracer peptide binding, 4h [%] | FP binding score, percentage inhibition of tracer peptide binding, 24h [%]
I[AHA][CpALA]GSVAHK [I83] | 70 | 89
RMVLSAFDEK [R4] | 61 | 69
ILRGSV[NLE]HK [I63] | 74 | 89
R[NVA]VLSAFDKR [R59] | 62 | 68
R[AHA]VLSAF[2-AOC]ER [R67] | 74 | 78
R[NVA]VLSAF[4-FPHE]ER [R72] | 68 | 72
RMVLSAF[CSET]ER [R37] | 60 | 60
RMVLSAF[2-AOC]ER [R38] | 69 | 75
R[NVA]VLSAF[SOME]ER [R70] | 64 | 74
RMVLSAF[CpALA]ER [R42] | 65 | 73
R[AHA]VLSAF[4-FPHE]ER [R68] | 67 | 64
RMVLSAFDER [R WT, reference compound] | 18 | 6
S[NVA][CpALA]FGGFTK [S96] | 76 | 91
S[NVA]SFGGF[TOME]K [S92] | 80 | 92
SF[4-FPHE]FGGFTK [S84] | 82 | 95
RM[OrnN2]LSAFDER [R83] | 71 | 72
S[NVA]SFGG[2-AOC]TK [S70] | 90 | 96
S[NVA]SFGGF[AHA]K [S90] | 78 | 90
[2-AOC][NLE]RGSVAHK [I60] | 72 | 91
[2-AOC][AHA]RGSVAHK [I17] | 61 | 89
R[AHA]VLSAFDEK [R2] | 58 | 67

same assay, conditions: after 4h

Substance | FP binding score HLA-A*0301, percentage inhibition, 4h [%]
RMVLSAF[PRG]ER [R39] | 62
R[AHA]VLSAF[SOME]ER [R66] | 63
RMVLSAF[CSET]ER [R37] | 60

same assay, conditions: after 24h

Substance | FP binding score HLA-A*0301, percentage inhibition, 24h [%]
RMVLSAF[PRG]ER [R39] | 62
R[AHA]VLSAF[SOME]ER [R66] | 63
RMVLSAF[CSET]ER [R37] | 60
